Laboratory results published in patent publication US8575320B2, “Compositions and methods for separating, characterizing and administering soluble selenoglycoproteins” (Alltech, Inc., priority 2010, dated 2013).

System: gene expression in chicken breast muscle tissue
Experiment: Microarray gene expression profile in breast muscle of broilers fed different selenium sources
Format: in vivo
Settings: P<0.05, FC>1.2 vs Control, 0.3 ppm Se diet, 18 days
Procedure: Breast muscle tissue from chickens referenced in Example 3 was used to assess similarities and differences in gene expression profiles elicited by the following dietary treatments: Treatment 1-basal (Control); Treatment 2-Control+0.3 ppm sodium-selenite (SS); Treatment 3-Control+0.3 ppm SEL-PLEX; Treatment 6-0.3 ppm SGP fraction extracted from SEL-PLEX (SP) at pH 4.0. […] As such, experiments were conducted during development of embodiments of the invention in order to determine if animals receiving SGP fraction pH 4.0 experienced similar in vivo effects (e.g., gene expression changes) observed in SP fed animals, or whether significant, measurable differences existed.
At 18-days of age, five chickens from each treatment group (described above and in Tables 3 and 4) were randomly selected and euthanized by argon asphyxiation, followed by cervical dislocation. Samples of breast muscle tissue (1 gram) were rapidly removed and flash frozen in liquid nitrogen. Samples were stored at −80° C. until analyzed.
Total RNA was isolated from frozen tissue using TRIZOL reagent (INVITROGEN, Carlsbad, Calif.) according to the manufacturer's protocol and purified using a RNEASY kit (QIAGEN, Valencia, Calif.). Total RNA was quantified by absorbance at 260 nm and integrity was confirmed by agarose gel electrophoresis and ethidium bromide staining of the 28S and 18S bands. […]

## O=[Se](O)O [SS, sodium selenite]
  number of genes significantly changed: 283
